# From PMC12040169 (PLOS Biology, 2025)
# Test: in vitro
# Conditions: human, hela cells, % viability
row,SMILES,"viability at 28.5 h, 10 µM [%]"
1,O=C(O)c1cc(NC(=O)c2ccco2)cc(NC(=O)c2ccco2)c1 [CBK263388],91.8
2,O=C(N/N=C\c1ccccc1C(F)(F)F)c1ccc(=O)[nH]n1 [CBK263389],100
3,CCc1ccc(/C=C2/SC(=S)N(CCC(=O)O)C2=O)cc1 [CBK263390],120
4,Cc1ccc(S(=O)(=O)N(CCO)CC(O)Cn2c3ccc(Cl)cc3c3cc(Cl)ccc32)cc1 (stereo not drawn) [CBK263392],97.6
5,O=C(O)c1ccccc1-c1ccccc1C(=O)NCCc1ccccc1 [CBK263394],113
6,CCOc1ccc(NC(=O)c2ccc(S(=O)(=O)N(C)C)cc2)c([N+](=O)[O-])c1 [CBK263396],90.6
7,COc1ccc(-n2c(SCC(=O)c3ccccc3)nc(O)c(Cc3ccccc3)c2=O)cc1 [CBK263398],97.7
8,COc1cc(CN2CCN(Cc3ccncc3)CC2)cc(OC)c1O [CBK263401],80.6
9,Cc1ccccc1CN1CCN(CC2CC3C=CC2C3)CC1 (stereo not drawn) [CBK263402],88
10,O=C(c1ccccc1F)N1CCN(C2CCN(Cc3ccccc3)CC2)CC1 [CBK263404],93.3
11,O=C(CSc1nnc(-c2ccccc2)c(-c2ccccc2)n1)Nc1ccc([N+](=O)[O-])cc1 [CBK263406],109
12,COc1cc(CN2CCN(C3CCCCC3)CC2)cc(OC)c1OC [CBK263407],99.1
13,O=C(O)c1cc(S(=O)(=O)N2CCCCC2)c(Cl)cc1N1CCCCC1 [CBK263408],93.5
14,COc1cc2c(cc1NC(=O)c1ccc(C)c([N+](=O)[O-])c1)oc1ccccc12 [CBK263411],91.9
15,COc1ccc(-c2nc3cc(NC(=O)COc4ccccc4[N+](=O)[O-])ccc3o2)cc1Cl [CBK263412],99.2
16,CC1=C(C#N)c2nc(N)c(C#N)c(C)c2/C1=C\c1ccc(-c2ccc(C(=O)O)cc2)o1 [CBK263415],105
17,O=C1c2ccccc2C(=O)N1CCCSc1nnc(-c2ccncc2)n1-c1ccccc1 [CBK263419],102
18,Cc1cc([N+](=O)[O-])ccc1-c1ccc(C(=O)Nc2ccc(O)c(-c3nc4ccccc4s3)c2)o1 [CBK263421],93
19,O=C(Nc1ccc(-c2nc3ccccc3o2)c(O)c1)c1ccc(-c2cccc(Cl)c2)o1 [CBK263422],95.4
20,CCOC(=O)c1ccc(-c2ccc(C(=O)Nc3ccc(-c4nc5ccccc5o4)c(O)c3)o2)cc1 [CBK263428],99
21,O=C(COc1ccc(I)cc1)Nc1cccnc1 [CBK263430],98.9
22,O=C(O)c1ccc(Cl)c(-c2ccc(/C=N\Nc3ccc([N+](=O)[O-])cn3)o2)c1 [CBK263431],93.9
23,Cc1ccc(Br)cc1S(=O)(=O)N1CCN(C(c2ccccc2)c2ccccc2)CC1 [CBK263433],95.3
24,O=C(/C=C/c1ccc(-c2ccccc2[N+](=O)[O-])o1)Nc1ccc(-c2nc3ncccc3o2)cc1 [CBK263434],99.2
25,Cc1ccc2oc(-c3cccc(NC(=O)c4ccc(-c5ccc([N+](=O)[O-])cc5)o4)c3C)nc2c1 [CBK263437],103
26,O=C(Nc1ccc(O)c(-c2nc3ccccc3o2)c1)c1ccc(-c2ccc([N+](=O)[O-])cc2)o1 [CBK263439],96.4
27,O=C(O)C12CC3CC(C(=O)O)(C1)CC(C(=O)O)(C3)C2 [CBK263442],84.4

row,SMILES,"viability at 28.5 h, 10 µM [%]"
1,O=C(CC1(C(F)(F)F)NCCN1)c1cccc([N+](=O)[O-])c1 [CBK263443],83.1
2,Nc1nc(SCCc2ccccc2)nc2sc3c(c12)CCCC3 [CBK263445],94.9
3,CC(=O)c1ccc(OC(C)C)c(CSc2nc(O)cc(O)n2)c1 [CBK263446],91.5
4,CCOc1cc(C=O)ccc1OCc1c(C)no[n+]1[O-] [CBK263449],92.1
5,O=C(Cc1ccccc1)N1CCN(CCCc2ccccc2)CC1 [CBK263451G],96.8
6,Cc1ccc(S(=O)(=O)N2CCN(CCCc3ccccc3)CC2)cc1 [CBK263453],95.2
7,O=C(CN1C(=O)c2ccc([N+](=O)[O-])cc2C1=O)Nc1ccc(O)cc1C(=O)O [CBK263456],95.5
8,c1ccc(CCCN2CCN(C3CCN(Cc4ccccc4)CC3)CC2)cc1 [CBK263457],84.8
9,CCn1c(C(O)c2ccc(OCc3ccccc3)cc2)nc2ccccc21 (stereo not drawn) [CBK263458],96.1
10,COc1ccc(OCC(=O)N2CCN(C3CCC(c4ccccc4)CC3)CC2)cc1 (stereo not drawn) [CBK263459],97.7
11,CC1=NN(c2ccc(S(N)(=O)=O)cc2)C(=O)/C1=C\c1ccc(-c2cc([N+](=O)[O-])ccc2C)o1 [CBK263460],106
12,c1ccc(CCCN2CCN(Cc3ccccn3)CC2)cc1 [CBK263461G],91.6
13,COc1cc(CN2CCN(C(=O)c3ccccc3)CC2)cc(OC)c1O [CBK263462],94.3
14,Cc1ccc(S(=O)(=O)Oc2c(C=C3C(=O)CC(C)(C)CC3=O)[nH]c3ccccc23)cc1 [CBK263464],94.4
15,C1=CCC(CN2CCN(C3CCN(Cc4ccccc4)CC3)CC2)CC1 (stereo not drawn) [CBK263469],91.6
16,Nc1nnc(CSCc2ccc(Cl)cc2Cl)s1 [CBK263471],100
17,CC1=NN(c2ccc(S(N)(=O)=O)cc2)C(=O)/C1=C\c1ccc(-c2ccc(S(N)(=O)=O)cc2)o1 [CBK263476],97.4
18,O=C(O)CCC(=O)Nc1ccc(NC(=O)c2ccccc2)c(Cl)c1 [CBK263478],86.8
19,COc1ccc(CN2CCN(C(=O)c3ccccc3F)CC2)cc1OCc1ccccc1 [CBK263479],80.7
20,CCN(CC)CCCN1C(=O)CSC1c1ccc2c(c1)OCO2 (stereo not drawn) [CBK263482C],102
21,CS(=O)(=O)N1CCN(C2CCN(Cc3ccccc3)CC2)CC1 [CBK263485],95.9
22,O=[N+]([O-])c1cc(Br)cc(/C=N/Nc2nc3ccccc3[nH]2)c1O [CBK263486],89.1
23,O=C(CSc1n[nH]c(=O)[nH]c1=O)N/N=C/c1ccc(O)cc1 [CBK263488],95.4
24,NNC(=O)Cn1c(-c2ccccn2)nc2ccccc21 [CBK263489],108
25,COc1ccc(C2=NN(CN3C(=O)C(=O)c4cc(Br)ccc43)C(c3cccc([N+](=O)[O-])c3)C2)cc1 (stereo not drawn) [CBK263490],119
26,CCC(=O)Nc1nc2ccccc2n1CCCN(C)C [CBK263492],102
27,Cc1cccc(C(=O)NCCc2nc3ccccc3[nH]2)c1 [CBK263493],100

row,SMILES,"viability at 28.5 h, 10 µM [%]"
1,CCC(=O)NNC(=O)c1cc(O)nc2ccccc12 [CBK263495],98.1
2,COc1ccc(OC)c(NC(=O)COc2ccc(C(C)C)cc2)c1 [CBK263498],114
3,NS(=O)(=O)c1ccc(CCNC2CC(=O)N(CCc3ccccc3)C2=O)cc1 (stereo not drawn) [CBK263502],93.4
4,Cc1c(C)[n+]([O-])c2cc(N3CCN(C)CC3)c(Cl)cc2[n+]1[O-] [CBK263503],96.3
5,CN1C(=O)/C(=C2\SC(=S)N(C(Cc3ccccc3)C(=O)O)C2=O)c2ccccc21 (stereo not drawn) [CBK263507],99.6
6,O=C(CSc1n[nH]c(=O)[nH]c1=O)N/N=C/c1cccs1 [CBK263508],98.9
7,CC(=O)Nc1ccc(/C(C)=N\NC(=O)CCN2CCCCC2)cc1 [CBK263509],95.9
8,Cc1ccc(OCC(=O)NNC(=O)C2COc3ccccc3O2)cc1 (stereo not drawn) [CBK263511],95.4
9,O=C(Nc1ccccc1C(=O)N1CCN(Cc2ccccc2)CC1)c1ccccn1 [CBK263512],106
10,COc1cc(/C=N/NC(=O)CSc2n[nH]c(=O)[nH]c2=O)ccc1O [CBK263513],88.7
11,O=C(NCCc1nc2ccccc2[nH]1)c1cccc(Cl)c1 [CBK263514],100
12,CCN1C(=O)/C(=C\NN=C2CCCC2)c2ccc(C3=NNC(=O)CC3)cc21 [CBK263515],88.1
13,CCN(CC)CCNC1=Nc2ccccc2CCC1 [CBK263520],94.7
14,O=C1Nc2ccc(Br)cc2/C1=C1/SC(=S)N(C(Cc2ccccc2)C(=O)O)C1=O (stereo not drawn) [CBK263521],95.6
15,CC(Nc1n[nH]c(=O)[nH]c1=O)C(=O)N/N=C/c1ccccc1O (stereo not drawn) [CBK263526],91.7
16,COc1cc(/C=N/NC(=O)CSc2n[nH]c(=O)[nH]c2=O)cc(OC)c1O [CBK263527],92.9
17,O=C(O)c1cc(NC(=O)c2cccc(Oc3ccc([N+](=O)[O-])cc3)c2)cc(C(=O)O)c1 [CBK263528],80.8
18,O=C(CNc1n[nH]c(=O)[nH]c1=O)N/N=C/c1ccc(C(=O)O)cc1 [CBK263529],96.2
19,O=C(O)CCCC(=O)NNC(=O)c1cccc(Br)c1 [CBK263530],99.9
20,CC1=C(C)CC(C(=O)Nc2ccc3c(c2)oc2ccccc23)C(C(=O)O)C1 (stereo not drawn) [CBK263533],102
21,CC(=O)Nc1ccc(NC(=O)C2C3CCC(C3)C2C(=O)O)cc1 (stereo not drawn) [CBK263534],93.9
22,S=C1NCN(Cc2ccccc2)CN1c1ccccc1 [CBK263536],91.3
23,O=C(NCCNc1ccc(Cl)cc1[N+](=O)[O-])c1ccccc1Br [CBK263538],102
24,Cc1cc(C)nc(Nc2nc3ccccc3[nH]2)n1 [CBK263539],102
25,Cc1ccc(C(=O)Nc2ccccc2C(=O)NC(C)C(=O)O)cc1 (stereo not drawn) [CBK263540],93.9

# Same assay, conditions: human, hela cells, % viability, bulk resorufin, single well
row,SMILES,"viability at 28.5 h, 10 µM [%]"
1,O=C(O)COc1c(Cl)cc(/C=C2\C(=O)NC(=S)N(c3ccc(F)cc3)C2=O)cc1Cl [CBK263391],107
2,CC1(C)CC(=O)C(C2(O)C(=O)Nc3ccc(Br)cc32)CO1 (stereo not drawn) [CBK263410],92.3
3,CCOc1cc(C=C2C(=O)NC(=S)NC2=O)ccc1OCc1c(C)no[n+]1[O-] [CBK263468],99.3
4,O=P(Nc1ccc(Cl)c(Cl)c1)(Nc1ccc(Cl)c(Cl)c1)Oc1ccc(Cl)cc1 [CBK263487],93.2
5,O=C(Cn1cc(/C=C2/C(=O)NC(=S)N(c3ccc(Cl)cc3)C2=O)c2ccccc21)Nc1ccccc1 [CBK263535],98.4
